# Experimental data reported in patent US20260306492A1 (BRISTOL-MYERS SQUIBB COMPANY, priority 2023, published 2026).
# Tests used:
# [1] = Milvexian pharmacokinetics in humans (healthy volunteers / terminal half-life)
# From the text: (AXIOMATIC-TKR Phase II). […] “Half-life (t1/2),” as used herein, refers to apparent terminal elimination half-life having a mean value calculated using formula t1/2=loge2/λz, where λz is the apparent terminal elimination rate-constant estimated by linear regression using the terminal log-linear phase of the logarithmic (log) transformed concentration vs time data.
# [2] = Thorough QT (TQT) study in healthy adults; format: in vivo, human; conditions: for ΔΔQTcF, highest upper limit of 2-sided 90% CI: Day 1 and Day 4
# Method: Pharmacokinetic analysis was performed on the plasma concentrations of each participant.
# [3] = Milvexian clinical program, adverse drug reactions; format: in vivo, human; conditions: milvexian clinical development program
# From the text: […]. […] […]. Milvexian in the two Phase II clinical trials (AXIOMATIC-TKR and AXIOMATIC-SSP) focused on different patient populations.
# [4] = test system: participants with non-lacunar, non-cardioembolic ischemic stroke or TIA; assay: AXIOMATIC-SSP Phase 2, safety (bleeding, adverse events)
# [5] = test system: participants with non-lacunar, non-cardioembolic ischemic stroke or TIA; assay: AXIOMATIC-SSP Phase 2, efficacy (ischemic stroke / covert brain infarction); format: in vivo, human
# [6] = Steady-state plasma pharmacokinetics of milvexian 100 mg BID
# [7] = Bleeding in AXIOMATIC-TKR and AXIOMATIC-SSP; format: in vivo, human
# From the text: […]. […] […]. […] […].
# [8] = Milvexian plasma pharmacokinetics, AXIOMATIC-TKR Phase II
# From the text: (AXIOMATIC-TKR Phase II). […] Assessment of the dose-response for the occurrence of any bleeding was a secondary objective.
# [9] = test system: intrinsic and final common pathways of the coagulation cascade (aPTT); assay: Activated partial thromboplastin time (aPTT), AXIOMATIC-TKR Phase II; format: in vivo, human; conditions: 25-200 mg QD/BID
# From the text: As used herein, the term “activated partial thromboplastin time (aPTT)” refers to a measure of the intrinsic and final common pathways of the coagulation cascade. It represents the time, in seconds, for plasma to clot after addition of phospholipid, an intrinsic pathway activator, and calcium. […] The term ‘partial’ means phospholipid is present but no tissue factor. The normal and reference ranges vary depending on reagent and instrument combinations, particularly with the phospholipid composition.
# In some embodiments, aPTT is measured as follows: Plasma samples are incubated with Actin FS aPTT assay reagent containing a standard amount of phospholipid and contact activator (ellagic acid) which activates the intrinsic coagulation pathway. After incubating for 3 minutes, calcium chloride is added to initiate coagulation and formation of a fibrin clot is measured optically. The time to clot formation (measured in seconds) is reported as the Activated Partial Thromboplastin Time (aPTT).
# Assessment of the dose-response for the occurrence of any bleeding was a secondary objective.
# (§1) PD analyses were performed on the PD analysis set, defined as subjects who had at least one valid blood sample drawn for PD. Descriptive statistics (N, mean, SD, median, range, CV (%) and IQ range) were used to summarize PD response at each nominal sampling time point by treatment group. Changes from baseline were summarized when applicable. PD response outside of limit of quantitation were not to be imputed and were to be noted in the summary statistics.
# [10] = test system: participants undergoing primary unilateral elective TKR surgery; assay: Total venous thromboembolism (VTE) in TKR patients, AXIOMATIC-TKR; format: in vivo, human
# thrombin generation = assay: Thrombin Generation Assay (TGA), AXIOMATIC-TKR Phase II; format: in vivo, human; conditions: 25-200 mg QD/BID
# From the text: As used herein, “Thrombin Generation Assay (TGA)” is a global coagulation assay that evaluates the thrombogenic capacity of a plasma sample and has been proposed that it may better reflect prothrombotic or hemorrhagic states than conventional clotting assays. In the traditional TGA, coagulation of citrated plasma is initiated through the extrinsic pathway by adding tissue factor, phospholipids, and calcium. For this study, in the in-vitro thrombin generation assay (TGA) using human platelet-rich plasma, and a kaolin slurry was used instead to initiate coagulation through the contact activation pathway. Thrombin generation is continuously monitored through the product released by cleavage of a thrombin-specific fluorogenic substrate. The generated thrombogram is used to determine several relevant parameters, including endogenous thrombin potential, defined as the area under the thrombin concentration vs. time curve. […]
# as §1
# [11] = 100 mg BID on top of standard care antiplatelet therapy
smiles,measurement,setting,value
"C[C@@H]1CCC[C@H](n2cnc(-c3cc(Cl)ccc3-n3cc(Cl)nn3)cc2=O)c2cc(ccn2)-c2c(cnn2C(F)F)NC1=O [Milvexian, (5R,9S)-9-(4-(5-chloro-2-(4-chloro-1H-1,2,3-triazol-1-yl)phenyl)-6-oxopyrimidin-1 (6H)-yl)-2^1-(difluoromethyl)-5-methyl-2^1H-3-aza-1 (4,2)-pyridina-2 (5,4)-pyrazolacyclonaphan-4-one]",median Tmax,"[1]; healthy volunteers, twice daily",approximately 3 hours
same,terminal plasma half-life (T1/2),"[1]; human, oral",13 to 16 h
same,"ΔΔQTcF, highest upper limit of 2-sided 90% CI",[2]; 100 mg milvexian,5.16 ms
same,"ΔΔQTcF at milvexian Tmax, upper limit of 90% CI",[2]; 100 mg twice daily,below 10 ms
same,"ΔΔQTcF, highest upper limit of 2-sided 90% CI",[2]; 200 mg milvexian,4.57 ms
same,"ΔΔQTcF at milvexian Tmax, upper limit of 90% CI",[2]; 200 mg twice daily,below 10 ms
same,safety and tolerability,"[2]; multiple doses of 100 and 200 mg, healthy adults",generally safe and well tolerated
same,QT/QTc interval prolongation,[2]; therapeutic (100 mg) and supratherapeutic (200 mg) doses,does not show evidence of QT/QTc interval prolongation of clinical or regulatory concern
same,serious bleeding assessed as adverse drug reactions,[3],"gastrointestinal bleeding, procedural hemorrhage, nervous system disorder bleeding (hemorrhagic transformation of ischemic stroke and subdural hematoma) and hematuria"
same,rate of major bleeding versus placebo,[4]; 25 mg once daily and twice daily,the same as for placebo
same,major bleeding (BARC Type 3/5),[4]; 50 mg twice daily and above,Moderate increases in major bleeding
same,renal serious and non-serious adverse events leading to discontinuation,[4]; 200 mg twice daily,higher rate
same,study drug discontinuations for adverse events,[4]; 200 mg twice daily,highest rate of study drug discontinuations for adverse events
same,"ISTH major and CRNM bleeding, and all bleeding",[4]; all milvexian doses,"increases in ISTH major and CRNM bleeding (mainly driven by CRNM), as well as all bleeding"
same,intracranial haemorrhage or symptomatic haemorrhagic transformation of brain infarction (modified BARC type 3c) versus placebo,[4]; all milvexian doses,no increase
same,fatal bleeding (BARC type 5),[4]; in the study,no fatal bleeding
same,dose-response for major bleeding,[4]; main composite safety endpoint,no significant dose-response
same,incidence of major bleeding,[4]; trial population,1-2%
same,dose-response for primary composite efficacy endpoint,"[5]; 25 mg QD to 200 mg BID, symptomatic ischaemic stroke and incident covert brain infarction",no significant dose-response
same,symptomatic ischaemic strokes,"[5]; all doses except 200 mg BID, pre-specified secondary analysis",numerically fewer symptomatic ischaemic strokes
same,incident covert brain infarcts versus placebo,[5]; milvexian doses,no effect compared to placebo
same,"steady state Cmax, mean (std)",[6]; 100 mg BID as monotherapy,1760 (566) ng/ml
same,"steady state AUC0-24, mean (std)",[6]; 100 mg BID as monotherapy,36200 (12900) ng*h/mL
same,"steady state Cmax, mean (std)",[6]; [11],1670 (536) ng/mL
same,"steady state AUC0-24, mean (std)",[6]; [11],35000 (12100) ng*h/mL
same,fatal bleeding,[7]; AXIOMATIC-TKR / AXIOMATIC-SSP,No fatal bleeding
same,symptomatic intracranial hemorrhage,[7]; AXIOMATIC-TKR / AXIOMATIC-SSP,no increases in symptomatic intracranial hemorrhage
same,dose-response for bleeding events,[7]; AXIOMATIC-TKR and AXIOMATIC-SSP,No dose-response relationship
same,Tmax,"[8]; Day 4, 25 mg twice daily",approximately 2 hours
same,Tmax,"[8]; Day 4, 50 mg once daily",approximately 4 hours
same,Tmax,"[8]; human, in vivo, po, 100 mg",~2 h
same,Tmax,"[8]; human, in vivo, po, 200 mg",~4 h
same,"observed concentration, Day 4 12 hours after dosing",[8]; in vivo,higher
same,"observed concentration, Day 7 12 hours after dosing",[8]; in vivo,lower
same,time to steady state of mean trough plasma concentrations,[8]; in vivo,approximately 4 Day
same,aPTT dose dependence,[9],dose related increase in aPTT
same,VTE reduction versus enoxaparin,[10]; 50 mg twice daily,superior to enoxaparin
same,VTE prevention versus enoxaparin 40 mg once daily,[10]; 50-200 mg twice daily,superior to enoxaparin 40 mg once daily
same,reduction in total VTE versus enoxaparin,[10]; each total daily dose regimen ≥100 mg,statistically significant reductions in total VTE compared to enoxaparin
same,lag time dose dependence,thrombin generation,dose related prolongation in the lag time
same,peak thrombin and area under the curve (total thrombin generation),thrombin generation,dose related reductions in peak thrombin and area under the curve
same,peak thrombin generation dose dependence,thrombin generation,clear and robust dose dependent reduction in peak thrombin generation
